Patent publication US20220340542A1, “SALTS OF OMECAMTIV MECARBIL AND SOLID FORMS THEREOF” (SYNTHON B.V., priority 2019, published 2022)
Structures can show the parent of a compound that is named as a salt.

Tests used:
[1] = Solid form stability when kept at elevated temperature and relative humidity; type: physicochemical; settings: 70% to 100% relative humidity, between 20 and 40 days
Method: The Form II can be characterized by XRPD pattern having 2θ values 5.0°, 9.3° and 16.5° degrees 2 theta (f 0.2 degrees 2 theta). The solid Form II can be also characterized by XRPD pattern having 2θ values 5.0°, 9.3°, 16.5°, 18.6° and 24.6° degrees 2 theta (±0.2 degrees 2 theta). The solid form can be further characterized by XRPD pattern described in the following table:
The Form III can be characterized by XRPD pattern having […] 14.3°, 19.3° and 25.8° degrees 2 theta (±0.2 degrees 2 theta). The solid […] can be also characterized by XRPD pattern having 2θ values 5.4°, 7.5°, 14.3°, 19.3° and 25.8° degrees 2 theta (±0.2 degrees 2 theta). The solid form can be further characterized by XRPD pattern described in the following table: […]

[2] = Solubility of Omecamtiv mecarbil salts in water solution (aqueous buffer) at different pH; type: physicochemical; settings: for Category of solubility (Descriptive Term): USP / Ph. Eur. descriptive terms; for Solubility in comparison with Omecamtiv mecarbil dihydrochloride monohydrate salt: water solution at pH 1.2, 4.5 and 6.8
Method: The solubility of prepared salts was tested in water solution at different pH (1.2, 4.5 and 6.8) and compared to Omecamtiv mecarbil dihydrochloride monohydrate salt prepared according to a procedure disclosed in WO2006009726 application. It can be concluded that solubilities of Omecamtiv mecarbil maleic acid salt, Form A, Omecamtiv mecarbil fumaric acid (1:1), Form I, Omecamtiv mecarbil malonic acid (1:1), Form I, Omecamtiv mecarbil adipic acid (1:1.5), Form I, Omecamtiv mecarbil sulfuric acid (1:1), Forms I, II and III salts are lower in comparison with Omecamtiv mecarbil dihydrochloride monohydrate salt.

COC(=O)N1CCN(Cc2cccc(NC(=O)Nc3ccc(C)nc3)c2F)CC1 [Omecamtiv mecarbil sulfuric acid salt]
Solid form transformation on storage ([1]; temperature between 40° C. and 80° C.): transformed to Omecamtiv mecarbil sulfuric acid salt, Form III

COC(=O)N1CCN(Cc2cccc(NC(=O)Nc3ccc(C)nc3)c2F)CC1 [Salt with HC1, Omecamtiv mecarbil dihydrochloride monohydrate salt, reference compound]
Category of solubility (Descriptive Term) ([2]; aqueous buffer pH 1.2): Freely soluble ((100-1000 mg/mL)) | Category of solubility (Descriptive Term) ([2]; aqueous buffer pH 4.5): Freely soluble ((100-1000 mg/mL)) | Category of solubility (Descriptive Term) ([2]; aqueous buffer pH 6.8): Freely soluble ((100-1000 mg/mL))

COC(=O)N1CCN(Cc2cccc(NC(=O)Nc3ccc(C)nc3)c2F)CC1 [Salt with adipic acid (1:1.5), Form I, Omecamtiv mecarbil adipic acid (1:1.5) salt]
Category of solubility (Descriptive Term) ([2]; aqueous buffer pH 1.2): Sparingly soluble ((10-33 mg/mL)) | Category of solubility (Descriptive Term) ([2]; aqueous buffer pH 4.5): Sparingly soluble ((10-33 mg/mL)) | Category of solubility (Descriptive Term) ([2]; aqueous buffer pH 6.8): Very slightly soluble ((0.1-1 mg/mL)) | Solubility in comparison with Omecamtiv mecarbil dihydrochloride monohydrate salt ([2]; Form I): lower

COC(=O)N1CCN(Cc2cccc(NC(=O)Nc3ccc(C)nc3)c2F)CC1 [Salt with fumaric acid (1:1), Form I, Omecamtiv mecarbil fumaric acid (1:1) salt]
Category of solubility (Descriptive Term) ([2]; aqueous buffer pH 1.2): Very slightly soluble ((0.1-1 mg/mL)) | Category of solubility (Descriptive Term) ([2]; aqueous buffer pH 4.5): Sparingly soluble ((10-33 mg/mL)) | Category of solubility (Descriptive Term) ([2]; aqueous buffer pH 6.8): Sparingly soluble ((10-33 mg/mL)) | Solubility in comparison with Omecamtiv mecarbil dihydrochloride monohydrate salt ([2]; Form I): lower | Solid form transformation on storage ([1]; temperature between 40° C. and 70° C.): transformed to Omecamtiv mecarbil fumaric acid (1:1), Form II

COC(=O)N1CCN(Cc2cccc(NC(=O)Nc3ccc(C)nc3)c2F)CC1 [Salt with fumaric acid (1:2), Form I, Omecamtiv mecarbil fumaric acid (1:2) salt]
Category of solubility (Descriptive Term) ([2]; aqueous buffer pH 1.2): Freely soluble ((100-1000 mg/mL)) | Category of solubility (Descriptive Term) ([2]; aqueous buffer pH 4.5): Freely soluble ((100-1000 mg/mL)) | Category of solubility (Descriptive Term) ([2]; aqueous buffer pH 6.8): Freely soluble ((100-1000 mg/mL)) | Solubility in comparison with Omecamtiv mecarbil dihydrochloride monohydrate salt ([2]; Form I): comparable

COC(=O)N1CCN(Cc2cccc(NC(=O)Nc3ccc(C)nc3)c2F)CC1 [Salt with maleic acid, Form A, Omecamtiv mecarbil maleic acid salt]
Category of solubility (Descriptive Term) ([2]; aqueous buffer pH 1.2): Sparingly soluble ((10-33 mg/mL)) | Category of solubility (Descriptive Term) ([2]; aqueous buffer pH 4.5): Sparingly soluble ((10-33 mg/mL)) | Category of solubility (Descriptive Term) ([2]; aqueous buffer pH 6.8): Very slightly soluble ((0.1-1 mg/mL)) | Solubility in comparison with Omecamtiv mecarbil dihydrochloride monohydrate salt ([2]; Form A): lower

COC(=O)N1CCN(Cc2cccc(NC(=O)Nc3ccc(C)nc3)c2F)CC1 [Salt with malonic acid (1:1), Form I, Omecamtiv mecarbil malonic acid (1:1) salt]
Category of solubility (Descriptive Term) ([2]; aqueous buffer pH 1.2): Sparingly soluble ((10-33 mg/mL)) | Category of solubility (Descriptive Term) ([2]; aqueous buffer pH 4.5): Sparingly soluble ((10-33 mg/mL)) | Category of solubility (Descriptive Term) ([2]; aqueous buffer pH 6.8): Very slightly soluble ((0.1-1 mg/mL)) | Solubility in comparison with Omecamtiv mecarbil dihydrochloride monohydrate salt ([2]; Form I): lower

COC(=O)N1CCN(Cc2cccc(NC(=O)Nc3ccc(C)nc3)c2F)CC1 [Salt with sulfuric acid (1:1), Forms I, II and III] [Omecamtiv mecarbil sulfuric acid salt]
Category of solubility (Descriptive Term) ([2]; aqueous buffer pH 1.2): Sparingly soluble ((10-33 mg/mL)) | Category of solubility (Descriptive Term) ([2]; aqueous buffer pH 4.5): Sparingly soluble ((10-33 mg/mL)) | Category of solubility (Descriptive Term) ([2]; aqueous buffer pH 6.8): Sparingly soluble ((10-33 mg/mL)) | Solubility in comparison with Omecamtiv mecarbil dihydrochloride monohydrate salt ([2]; listed as Omecamtiv mecarbil sulfuric acid (1:1), Forms I, II and III): lower
